Measurements: ChEMBL document CHEMBL4507278 (2021)

Legend:
[1] = tested on: Epidermal growth factor receptor (Homo sapiens), P00533 [G719S]; conditions: Compound concentration 1000.0 nM
[2] = target: Casein kinase I isoform alpha-like (Homo sapiens) (UniProt Q8N752); conditions: Compound concentration 1000.0 nM
[3] = target: Aurora kinase A (Homo sapiens) (UniProt O14965); conditions: Compound concentration 1000.0 nM
[4] = target: Mitogen-activated protein kinase kinase kinase 2 (Homo sapiens) (UniProt Q9Y2U5); conditions: Compound concentration 1000.0 nM
[5] = target: LIM domain kinase 1 (Homo sapiens) (UniProt P53667); conditions: Compound concentration 1000.0 nM
[6] = target: Serine/threonine-protein kinase WNK3 (Homo sapiens) (UniProt Q9BYP7); conditions: Compound concentration 1000.0 nM
[7] = target: Tyrosine-protein kinase Mer (Homo sapiens) (UniProt Q12866); conditions: Compound concentration 1000.0 nM
[8] = target: Inhibitor of nuclear factor kappa-B kinase subunit epsilon (Homo sapiens) (UniProt Q14164); conditions: Compound concentration 1000.0 nM
Chain of Inhibitor of nuclear factor kappa-B kinase subunit epsilon (Homo sapiens) (Q14164 whole entry): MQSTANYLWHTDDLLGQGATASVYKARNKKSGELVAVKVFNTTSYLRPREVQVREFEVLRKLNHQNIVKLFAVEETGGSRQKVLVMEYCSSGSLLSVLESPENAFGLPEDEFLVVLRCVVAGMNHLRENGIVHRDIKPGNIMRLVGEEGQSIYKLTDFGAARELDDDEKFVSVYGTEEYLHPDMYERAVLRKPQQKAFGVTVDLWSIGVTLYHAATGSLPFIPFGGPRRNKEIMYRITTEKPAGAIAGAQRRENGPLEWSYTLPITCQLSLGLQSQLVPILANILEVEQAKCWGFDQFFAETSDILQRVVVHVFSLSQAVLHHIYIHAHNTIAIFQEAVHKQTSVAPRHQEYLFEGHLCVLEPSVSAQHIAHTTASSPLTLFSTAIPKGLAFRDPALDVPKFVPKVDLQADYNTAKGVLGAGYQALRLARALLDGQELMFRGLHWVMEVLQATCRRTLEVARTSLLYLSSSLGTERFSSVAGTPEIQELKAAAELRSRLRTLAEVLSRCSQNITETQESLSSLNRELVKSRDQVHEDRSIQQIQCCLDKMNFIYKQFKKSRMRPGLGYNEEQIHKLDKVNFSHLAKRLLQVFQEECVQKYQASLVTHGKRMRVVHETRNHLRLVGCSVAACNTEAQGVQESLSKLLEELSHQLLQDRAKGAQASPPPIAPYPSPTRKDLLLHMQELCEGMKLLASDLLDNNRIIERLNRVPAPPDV

[9] = target: Ribosomal protein S6 kinase alpha-5 (Homo sapiens) (UniProt O75582); conditions: Compound concentration 1000.0 nM
[10] = target: Serine/threonine-protein kinase tousled-like 1 (Homo sapiens) (UniProt Q9UKI8); conditions: Compound concentration 1000.0 nM
[11] = target: Ephrin type-A receptor 4 (Homo sapiens) (UniProt P54764); conditions: Compound concentration 1000.0 nM
[12] = target: Tyrosine-protein kinase ABL2 (Homo sapiens) (UniProt P42684); conditions: Compound concentration 1000.0 nM
[13] = target: Serine/threonine-protein kinase MARK1 (Homo sapiens) (UniProt Q9P0L2); conditions: Compound concentration 1000.0 nM
[14] = target: Phosphatidylinositol 5-phosphate 4-kinase type-2 gamma (Homo sapiens) (UniProt Q8TBX8); conditions: Compound concentration 1000.0 nM
Chain of Phosphatidylinositol 5-phosphate 4-kinase type-2 gamma (Homo sapiens) (Q8TBX8 whole entry): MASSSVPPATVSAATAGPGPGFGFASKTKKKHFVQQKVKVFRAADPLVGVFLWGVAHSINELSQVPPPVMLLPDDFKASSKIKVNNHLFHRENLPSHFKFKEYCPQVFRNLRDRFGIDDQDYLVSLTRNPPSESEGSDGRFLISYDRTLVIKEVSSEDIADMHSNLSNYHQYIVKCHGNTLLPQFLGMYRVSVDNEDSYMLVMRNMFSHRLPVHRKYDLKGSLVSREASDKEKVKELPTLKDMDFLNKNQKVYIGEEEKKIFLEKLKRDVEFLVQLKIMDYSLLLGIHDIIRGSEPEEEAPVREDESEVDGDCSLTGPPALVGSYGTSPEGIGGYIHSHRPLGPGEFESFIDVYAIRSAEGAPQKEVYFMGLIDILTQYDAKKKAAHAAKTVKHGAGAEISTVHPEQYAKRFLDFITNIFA

[15] = target: Activin receptor type-1B (Homo sapiens) (UniProt P36896); conditions: Compound concentration 1000.0 nM
Chain of Activin receptor type-1B (Homo sapiens) (P36896 whole entry): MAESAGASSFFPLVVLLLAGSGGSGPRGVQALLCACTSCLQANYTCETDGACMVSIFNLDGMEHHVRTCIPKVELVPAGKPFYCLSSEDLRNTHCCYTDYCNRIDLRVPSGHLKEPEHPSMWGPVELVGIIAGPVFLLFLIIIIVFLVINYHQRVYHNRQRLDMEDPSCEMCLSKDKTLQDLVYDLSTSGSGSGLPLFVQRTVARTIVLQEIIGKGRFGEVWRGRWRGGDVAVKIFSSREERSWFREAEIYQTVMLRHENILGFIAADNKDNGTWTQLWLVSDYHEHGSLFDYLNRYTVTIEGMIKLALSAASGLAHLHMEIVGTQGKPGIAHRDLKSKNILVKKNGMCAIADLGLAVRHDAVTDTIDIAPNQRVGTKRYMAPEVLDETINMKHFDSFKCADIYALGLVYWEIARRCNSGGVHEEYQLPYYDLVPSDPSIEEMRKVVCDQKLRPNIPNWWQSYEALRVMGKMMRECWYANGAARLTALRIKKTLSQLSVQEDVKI

[16] = target: Ribosomal protein S6 kinase alpha-6 (Homo sapiens) (UniProt Q9UK32); conditions: Compound concentration 1000.0 nM
[17] = target: Calcium/calmodulin-dependent protein kinase type II subunit beta (Homo sapiens) (UniProt Q13554); conditions: Compound concentration 1000.0 nM
[18] = target: Cyclin-dependent kinase 2 (Homo sapiens) (UniProt P24941); conditions: Compound concentration 1000.0 nM
[19] = target: Serine/threonine-protein kinase MRCK alpha (Homo sapiens) (UniProt Q5VT25); conditions: Compound concentration 1000.0 nM
[20] = target: Serine/threonine-protein kinase 32A (Homo sapiens) (UniProt Q8WU08); conditions: Compound concentration 1000.0 nM
[21] = target: Serine/threonine-protein kinase MAK (Homo sapiens) (UniProt P20794); conditions: Compound concentration 1000.0 nM
[22] = target: Insulin receptor-related protein (Homo sapiens) (UniProt P14616); conditions: Compound concentration 1000.0 nM
[23] = target: Death-associated protein kinase 2 (Homo sapiens) (UniProt Q9UIK4); conditions: Compound concentration 1000.0 nM
[24] = tested on: eIF-2-alpha kinase GCN2 (Homo sapiens), Q9P2K8 [S808G]; conditions: Compound concentration 1000.0 nM
[25] = tested on: Phosphatidylinositol 4,5-bisphosphate 3-kinase catalytic subunit alpha isoform (Homo sapiens), P42336 [H1047Y]; conditions: Compound concentration 1000.0 nM
[26] = target: Non-receptor tyrosine-protein kinase TYK2 (Homo sapiens) (UniProt P29597); conditions: Compound concentration 1000.0 nM
Chain of Non-receptor tyrosine-protein kinase TYK2 (Homo sapiens) (P29597 whole entry): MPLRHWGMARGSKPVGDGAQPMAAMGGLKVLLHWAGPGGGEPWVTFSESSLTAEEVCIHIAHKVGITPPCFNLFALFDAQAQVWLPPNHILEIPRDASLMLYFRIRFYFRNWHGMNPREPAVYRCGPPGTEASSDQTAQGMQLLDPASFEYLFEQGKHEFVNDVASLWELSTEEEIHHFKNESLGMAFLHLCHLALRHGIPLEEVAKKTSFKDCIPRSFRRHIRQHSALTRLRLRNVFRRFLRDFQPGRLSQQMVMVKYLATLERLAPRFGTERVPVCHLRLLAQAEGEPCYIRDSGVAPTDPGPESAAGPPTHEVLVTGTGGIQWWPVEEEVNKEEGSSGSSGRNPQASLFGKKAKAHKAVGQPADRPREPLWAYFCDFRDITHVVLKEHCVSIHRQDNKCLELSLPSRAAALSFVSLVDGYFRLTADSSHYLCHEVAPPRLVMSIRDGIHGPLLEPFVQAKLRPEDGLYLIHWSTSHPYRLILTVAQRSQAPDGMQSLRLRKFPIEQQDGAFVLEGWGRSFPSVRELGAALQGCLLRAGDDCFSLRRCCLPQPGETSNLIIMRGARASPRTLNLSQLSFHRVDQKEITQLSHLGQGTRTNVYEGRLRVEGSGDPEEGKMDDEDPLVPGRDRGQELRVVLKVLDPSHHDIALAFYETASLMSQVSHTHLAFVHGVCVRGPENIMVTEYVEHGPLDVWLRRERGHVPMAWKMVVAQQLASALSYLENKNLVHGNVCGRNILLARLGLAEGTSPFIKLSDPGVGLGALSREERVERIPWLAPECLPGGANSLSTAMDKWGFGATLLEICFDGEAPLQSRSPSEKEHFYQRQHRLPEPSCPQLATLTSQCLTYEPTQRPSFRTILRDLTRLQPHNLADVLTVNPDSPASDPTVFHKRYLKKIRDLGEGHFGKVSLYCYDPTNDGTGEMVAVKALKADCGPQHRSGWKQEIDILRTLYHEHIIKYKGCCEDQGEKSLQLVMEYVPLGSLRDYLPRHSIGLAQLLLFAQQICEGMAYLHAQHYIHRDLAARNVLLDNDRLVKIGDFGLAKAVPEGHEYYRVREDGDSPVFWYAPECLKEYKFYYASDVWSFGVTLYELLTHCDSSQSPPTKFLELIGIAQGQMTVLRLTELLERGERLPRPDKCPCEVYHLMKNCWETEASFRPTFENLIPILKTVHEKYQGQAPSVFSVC

[27] = target: Serine/threonine-protein kinase Sgk3 (Homo sapiens) (UniProt Q96BR1); conditions: Compound concentration 1000.0 nM
[28] = target: Calcium/calmodulin-dependent protein kinase type II subunit gamma (Homo sapiens) (UniProt Q13555); conditions: Compound concentration 1000.0 nM
[29] = tested on: Phosphatidylinositol 4,5-bisphosphate 3-kinase catalytic subunit alpha isoform (Homo sapiens), P42336 [I800L]; conditions: Compound concentration 1000.0 nM
Chain of Phosphatidylinositol 4,5-bisphosphate 3-kinase catalytic subunit alpha isoform (Homo sapiens), P42336 [I800L] (P42336 whole entry I800L, canonical isoform): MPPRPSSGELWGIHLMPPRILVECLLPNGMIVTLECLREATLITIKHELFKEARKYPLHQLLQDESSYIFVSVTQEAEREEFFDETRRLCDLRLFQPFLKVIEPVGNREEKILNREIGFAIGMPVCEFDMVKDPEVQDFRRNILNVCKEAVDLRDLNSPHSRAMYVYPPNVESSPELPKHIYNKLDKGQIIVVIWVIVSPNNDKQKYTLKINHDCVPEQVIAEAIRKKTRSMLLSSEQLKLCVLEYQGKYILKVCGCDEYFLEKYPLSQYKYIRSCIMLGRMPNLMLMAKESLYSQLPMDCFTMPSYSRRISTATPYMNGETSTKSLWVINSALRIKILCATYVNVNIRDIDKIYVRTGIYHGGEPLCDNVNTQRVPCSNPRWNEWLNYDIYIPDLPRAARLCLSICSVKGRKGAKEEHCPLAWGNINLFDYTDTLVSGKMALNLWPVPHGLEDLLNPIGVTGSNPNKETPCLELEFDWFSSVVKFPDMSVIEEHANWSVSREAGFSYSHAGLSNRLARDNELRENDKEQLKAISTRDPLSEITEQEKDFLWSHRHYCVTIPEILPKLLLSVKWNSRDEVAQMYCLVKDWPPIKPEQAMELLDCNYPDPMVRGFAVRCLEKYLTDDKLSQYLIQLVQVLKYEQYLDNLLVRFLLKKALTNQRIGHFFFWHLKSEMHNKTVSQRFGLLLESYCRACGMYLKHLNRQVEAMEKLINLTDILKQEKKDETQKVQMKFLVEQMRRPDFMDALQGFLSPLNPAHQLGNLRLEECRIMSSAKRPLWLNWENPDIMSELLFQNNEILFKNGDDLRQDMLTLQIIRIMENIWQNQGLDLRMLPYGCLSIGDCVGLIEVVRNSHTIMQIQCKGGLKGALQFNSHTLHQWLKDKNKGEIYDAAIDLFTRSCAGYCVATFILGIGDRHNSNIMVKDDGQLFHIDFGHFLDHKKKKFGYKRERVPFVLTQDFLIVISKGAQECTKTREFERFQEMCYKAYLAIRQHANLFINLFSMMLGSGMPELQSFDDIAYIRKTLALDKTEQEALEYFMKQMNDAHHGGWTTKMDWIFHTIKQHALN

[30] = target: Glycogen synthase kinase-3 beta (Homo sapiens) (UniProt P49841); conditions: Compound concentration 1000.0 nM
[31] = target: Cyclin-dependent kinase 14 (Homo sapiens) (UniProt O94921); conditions: Compound concentration 1000.0 nM
Chain of Cyclin-dependent kinase 14 (Homo sapiens) (O94921 whole entry): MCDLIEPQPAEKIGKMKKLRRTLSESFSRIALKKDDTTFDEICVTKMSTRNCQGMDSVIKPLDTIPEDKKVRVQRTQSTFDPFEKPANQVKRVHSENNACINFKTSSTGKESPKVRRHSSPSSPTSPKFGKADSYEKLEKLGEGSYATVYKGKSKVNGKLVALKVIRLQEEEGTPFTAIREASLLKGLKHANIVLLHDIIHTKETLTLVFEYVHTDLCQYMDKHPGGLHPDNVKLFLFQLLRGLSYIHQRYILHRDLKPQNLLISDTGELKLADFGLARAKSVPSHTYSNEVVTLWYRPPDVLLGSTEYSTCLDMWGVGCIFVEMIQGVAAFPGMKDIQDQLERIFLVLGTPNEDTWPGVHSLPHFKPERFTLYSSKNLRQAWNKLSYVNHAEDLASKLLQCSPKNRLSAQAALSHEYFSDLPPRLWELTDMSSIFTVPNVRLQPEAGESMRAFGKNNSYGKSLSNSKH

[32] = target: Tyrosine-protein kinase Fes/Fps (Homo sapiens) (UniProt P07332); conditions: Compound concentration 1000.0 nM
[33] = target: Cyclin-dependent kinase 15 (Homo sapiens) (UniProt Q96Q40); conditions: Compound concentration 1000.0 nM
Chain of Cyclin-dependent kinase 15 (Homo sapiens) (Q96Q40 whole entry): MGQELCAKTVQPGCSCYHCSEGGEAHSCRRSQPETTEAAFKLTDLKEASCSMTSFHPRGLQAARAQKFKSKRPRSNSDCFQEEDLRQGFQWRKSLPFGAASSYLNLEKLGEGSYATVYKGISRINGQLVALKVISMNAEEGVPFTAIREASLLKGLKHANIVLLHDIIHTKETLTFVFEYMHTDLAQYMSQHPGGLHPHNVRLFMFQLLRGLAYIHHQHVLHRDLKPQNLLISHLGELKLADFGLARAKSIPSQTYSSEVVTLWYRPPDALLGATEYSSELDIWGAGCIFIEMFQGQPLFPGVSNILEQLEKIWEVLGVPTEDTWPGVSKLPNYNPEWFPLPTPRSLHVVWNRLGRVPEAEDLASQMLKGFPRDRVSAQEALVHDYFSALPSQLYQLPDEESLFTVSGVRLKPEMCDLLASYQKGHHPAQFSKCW

[34] = target: cAMP-dependent protein kinase catalytic subunit beta (Homo sapiens) (UniProt P22694); conditions: Compound concentration 1000.0 nM
[35] = target: Serine/threonine-protein kinase 33 (Homo sapiens) (UniProt Q9BYT3); conditions: Compound concentration 1000.0 nM
[36] = target: Cyclin-dependent kinase 11B (Homo sapiens) (UniProt P21127); conditions: Compound concentration 1000.0 nM
[37] = target: Tyrosine-protein kinase ABL1 (Homo sapiens) (UniProt P00519); conditions: Compound concentration 1000.0 nM
[38] = target: Sigma non-opioid intracellular receptor 1 (Homo sapiens) (UniProt Q99720); conditions: Compound concentration 10.0 uM
Chain of Sigma non-opioid intracellular receptor 1 (Homo sapiens) (Q99720 whole entry): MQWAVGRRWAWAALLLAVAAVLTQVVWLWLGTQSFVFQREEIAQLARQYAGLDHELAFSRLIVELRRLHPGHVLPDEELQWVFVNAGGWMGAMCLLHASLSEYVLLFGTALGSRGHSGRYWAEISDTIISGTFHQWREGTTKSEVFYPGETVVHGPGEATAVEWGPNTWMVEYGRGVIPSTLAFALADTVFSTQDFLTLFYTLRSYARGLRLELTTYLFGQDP

[39] = target: Inhibitor of nuclear factor kappa-B kinase subunit beta (Homo sapiens) (UniProt O14920); conditions: Compound concentration 1000.0 nM
[40] = target: Sodium-dependent serotonin transporter (Homo sapiens) (UniProt P31645); conditions: Compound concentration 10.0 uM
[41] = target: Serine/threonine-protein kinase WNK4 (Homo sapiens) (UniProt Q96J92); conditions: Compound concentration 1000.0 nM
[42] = target: Interleukin-1 receptor-associated kinase 1 (Homo sapiens) (UniProt P51617); conditions: Compound concentration 1000.0 nM
[43] = tested on: Tyrosine-protein kinase ABL1 (Homo sapiens), P00519 [F317L]; conditions: Compound concentration 1000.0 nM
[44] = target: Calcium/calmodulin-dependent protein kinase type 1G (Homo sapiens) (UniProt Q96NX5); conditions: Compound concentration 1000.0 nM
[45] = target: Mitogen-activated protein kinase kinase kinase kinase 5 (Homo sapiens) (UniProt Q9Y4K4); conditions: Compound concentration 1000.0 nM

CS(=O)(=O)NCC[C@H](NC(=O)c1cncc2c1cnn2-c1ccc(F)cc1)c1ccnc(S(C)(=O)=O)c1 [BI 9307]
active: residual activity [14] 0%
inactive: residual activity [1] 75% | residual activity [2] 94% | residual activity [3] 100% | residual activity [4] 100% | residual activity [5] 100% | residual activity [6] 100% | residual activity [7] 100% | residual activity [8] 78% | residual activity [9] 100% | residual activity [10] 100% | residual activity [11] 100% | residual activity [12] 93% | residual activity [13] 92% | residual activity [15] 100% | residual activity [16] 99% | residual activity [17] 100% | residual activity [18] 100% | residual activity [19] 100% | residual activity [20] 74% | residual activity [21] 100% | residual activity [22] 100% | residual activity [23] 100% | residual activity [24] 100% | residual activity [25] 100% | residual activity [26] 100% | residual activity [27] 100% | residual activity [28] 99% | residual activity [29] 61% | residual activity [30] 100% | residual activity [31] 100% | residual activity [32] 100% | residual activity [33] 79% | residual activity [34] 100% | residual activity [35] 87% | residual activity [36] 100% | residual activity [37] 100% | inhibition [38] 7.62% | residual activity [39] 89% | inhibition [40] -7.52% | residual activity [41] 100% | residual activity [42] 100% | residual activity [43] 100% | residual activity [44] 100% | residual activity [45] 83%

CS(=O)(=O)c1cc(C2(NC(=O)c3cncc4c3cnn4-c3ccc(F)cc3)CC2)ccn1 [BI 639667]
inactive: residual activity [1] 100% | residual activity [2] 100% | residual activity [3] 89% | residual activity [4] 84% | residual activity [5] 100% | residual activity [6] 100% | residual activity [7] 100% | residual activity [8] 100% | residual activity [9] 61% | residual activity [10] 75% | residual activity [11] 100% | residual activity [12] 95% | residual activity [13] 100% | residual activity [14] 100% | residual activity [15] 100% | residual activity [16] 97% | residual activity [17] 100% | residual activity [18] 94% | residual activity [19] 100% | residual activity [20] 71% | residual activity [21] 100% | residual activity [22] 65% | residual activity [23] 96% | residual activity [24] 91% | residual activity [25] 100% | residual activity [26] 73% | residual activity [27] 100% | residual activity [28] 72% | residual activity [29] 68% | residual activity [30] 85% | residual activity [31] 100% | residual activity [32] 100% | residual activity [33] 100% | residual activity [34] 100% | residual activity [35] 90% | residual activity [36] 81% | residual activity [37] 71% | inhibition [38] 26.4% | residual activity [39] 100% | inhibition [40] -2.94% | residual activity [41] 97% | residual activity [42] 87% | residual activity [43] 100% | residual activity [44] 100% | residual activity [45] 98%
